Values of other authors as cited in patent US20240293350A1, “DEVELOPMENT OF AN INNOVATIVE INHALATION FORMULATION OF NAFAMOSTAT MESYLATE FOR THE MANAGEMENT OF COVID-19” (EGE UNIVERSITESI, priority 2020, published 2024).
Structures can show the parent of a compound that is named as a salt.

Columns and labels:
SARS-COV-2 [1] = conditions: administered after infection with SARS-COV-2; compared with Remdesivir
SARS-COV-2 [2] = conditions: Simian Vero E6 cells infected with SARS-COV-2, cell culture
coronavirus = conditions: primary human mucociliary airway epithelial cells
NL63 virus = conditions: after infection with NL63 virus, gut-on-a-chip model; compared with Remdesivir

Question: Which results are given for `N=C(N)c1ccc2cc(OC(=O)c3ccc(N=C(N)N)cc3)ccc2c1` [NM, nafamostat mesylate]?
Answer: viral load (SARS-COV-2 [1]): decreased the viral load more than Remdesivir; prevention of infection of cells (SARS-COV-2 [2]): prevent cells from being infected with the virus; antiviral activity (coronavirus): demonstrated antiviral activity; effectiveness after infection (NL63 virus): much more effective after infection with the NL63 virus than Remdesivir
